Experiment [1] concerns the target T1, YgdH (Escherichia coli, UniProt P0ADR8). As to the kind of experiment: TLC of YgdH binding reactions (degradation test). As to conditions: binding reactions analyzed by TLC. In kind it is biochemical, E. coli.
In another experiment the target is TrmE (Escherichia coli, UniProt P25522). As to the kind of experiment: In vitro cleavage assay (TLC), TrmE. In kind it is biochemical, E. coli. As to conditions: 10 µM TrmE, buffer B, with 100 mM potassium where stated, 10 min. The method, then: (§1) The purified His6-MutT and His6-NudG proteins were tested for their relative levels of cleavage of ppGpp compared to those seen with their native substrates. For this, a 1 μM concentration of each protein and a 10 nM concentration of [α-^32P]ppGpp were used together with 100 μM concentrations of cold competitors [ppGpp, GTP, ATP, 8-oxo-(d)GTP, 2-hydroxyl-(d)ATP] or 50 mM EDTA in buffer B. The samples were incubated at 30°C for 10 min and for 1 h before the reactions were stopped by adding 50 mM EDTA. The cleavage products were resolved by TLC as described above. The purified His6-NadR and His6-TrmE proteins were tested for their cleavage of both GTP and ppGpp. For cleavage of GTP, 10 μM concentrations of His6-MBP, His6-TrmE, and 20 μM His6-NadR proteins were used with 2 nM [α-^32P]GTP and 100 μM cold GTP in buffer B. For cleavage of ppGpp, 10 μM concentrations of His6-TrmE, His6-MBP, and His6-NadR proteins were used with 10 nM [α-^32P]ppGpp in buffer B. Of note, for His6-TrmE, another reaction was also performed in buffer B supplemented with 100 mM KCl. The reactions were performed at RT for 10 min and were stopped by adding 17% formic acid. The cleavage products were resolved by TLC as described above.
A 20 μM concentration of each of purified proteins MutT, NudG, NadR, TrmE, and MBP (as a negative control) was incubated with 100 μM ppGpp in buffer B (containing 40 mM Tris [pH 7.5], 100 mM NaCl, and 10 mM MgCl2) for 20 min at room temperature. Samples were snap-frozen on dry ice and analyzed with UPLC-MS afterward. All samples and buffers were stored at −80°C, thawed on ice, and kept at 4°C during analysis. For the analysis, a UPLC-quadrupole time of flight (UPLC-qTOF) method (Waters) was used. […] The detection conditions were as follows: photodiode array detector (PDA), […] (evaluated at 260 nm); MS, ionization; electrospray ionization (ESI+), scan, 200 to 800 m/z with lock mass correction. […]

Experiment [2] concerns the target T2, Apt (Escherichia coli, UniProt P69503). As to conditions: ref Table S1 (2); cited from earlier work.
In a further experiment the target is YybT /GdpP. As to conditions: other bacteria, cited from earlier work.
The target of the next experiment is Hpt (Escherichia coli, UniProt P0A9M2). The experiment can be described thus: DRaCALA competition assay, Hpt. In kind it is binding, E. coli. As to conditions: 20 µM Hpt, 2 nM hot ppGpp, 100 µM cold competitor.
Another experiment concerns RNAP /DksA. Set-up: method as in Table S1 (14). As to conditions: ref Table S1 (14); cited from earlier work.
The target in another experiment is Gpt (Escherichia coli, UniProt P0A9M5). As to the kind of experiment: DRaCALA competition assay, Gpt. In kind it is binding, E. coli. As to conditions: 20 µM Gpt, 2 nM hot ppGpp, 100 µM cold competitor.
The next experiment deals with GuaB. Set-up: method as in ref 29, 31, 47 (Table S1 ref 5). As to conditions: 47 (Table S1 ref 5); cited from earlier work.
Experiment [3] deals with DnaG. As to conditions: ref Table S1 (12); cited from earlier work.
The next experiment concerns the target T3, NudG (Escherichia coli, UniProt P77788).
T3 construct: expressed in transfected cells; host or cells: E. coli ASKA collection strain, IPTG-induced, whole-cell lysate
The experiment can be described thus: In vitro cleavage assay (TLC), NudG. In kind it is biochemical, E. coli. As to conditions: purified NudG, buffer B with 10 mM MgCl2, TLC. The method, then:
as §1
(§2) A 20 μM concentration of each of purified proteins MutT, NudG, NadR, TrmE, and MBP (as a negative control) was incubated with 100 μM ppGpp in buffer B (containing 40 mM Tris [pH 7.5], 100 mM NaCl, and 10 mM MgCl2) for 20 min at room temperature. Samples were snap-frozen on dry ice and analyzed with UPLC-MS afterward. All samples and buffers were stored at −80°C, thawed on ice, and kept at 4°C during analysis. For the analysis, a UPLC-quadrupole time of flight (UPLC-qTOF) method (Waters) was used. Analysis conditions were as follows: column, zic-HILIC (Merck Millipore) (150 by 2.1 mm, […], gradient elution, flow rate set to 0.3 ml/min); mobile phase A, 10 mM ammonium acetate (pH 5); mobile phase B, 90% acetonitrile with 10 mM ammonium acetate (pH 5). The gradient was set up as follows: min 0 to 2, 80% B; min 2 to 16, 80% B to 50% B; hold until min 20; injection volume, 4 µl. The detection conditions were as follows: photodiode array detector (PDA), […] (evaluated at 260 nm); MS, ionization; electrospray ionization (ESI+), scan, 200 to 800 m/z with lock mass correction. Analytes were identified by their accurate mass and retention time data for a known standard dissolved in used buffer (for the chemicals of the same nominal masses). These standards were either synthesized and their structures confirmed by nuclear magnetic resonance (NMR) (for ppGp, pGpp, and pGp) or purchased (ppGpp was purchased from Jena Biocsience and GTP from Sigma-Aldrich).

Experiment [4] deals with T1, YgdH. The experiment can be described thus: DRaCALA competition assay, YgdH. In kind it is binding, E. coli. As to conditions: 100 µM cold competitor; data not shown.
The target of experiment [5] is T4, PurA (Escherichia coli, UniProt P0A7D4). As to conditions: cited from earlier work.
Another experiment has as its target MutT (Escherichia coli, UniProt P08337). The experiment can be described thus: In vitro cleavage assay (TLC), MutT. In kind it is biochemical, E. coli. As to conditions: purified MutT, buffer B with 10 mM MgCl2, TLC. As for the experimental part: as §1, §2
Experiment [6] concerns the target T1, YgdH. As to the kind of experiment: DRaCALA binding and Kd determination, purified YgdH. Further details: species or system E. coli. As to conditions: 20 µM YgdH, binding buffer with 10 mM MgCl2, no EDTA.
Experimental: For Kd measurements by DRaCALA, 2-fold serial dilutions from the highest possible concentrations of each purified protein were prepared in binding buffer B, and approximately 2 nM concentrations of α-^32P-labeled ppGpp, pppGpp, GTP, and GDP were added. The mixtures were incubated for 5 min at RT before spotting of 2 µl of the reaction mixtures onto nitrocellulose membranes. […] For competition assays, purified proteins at the specified concentrations were incubated with 2 nM [α-^32P]ppGpp or [α-^32P]pppGpp in the presence of 100 μM competitor nucleotides in binding buffer B. The reaction mixtures were incubated for 5 min at RT, 2 µl was spotted onto nitrocellulose membranes, and the values corresponding to the bound fractions were determined. EDTA was added at excess concentrations as specified for each case.
For experiment [7], the target named is T2, Apt. The experiment can be described thus: DRaCALA binding, purified Apt. Set-up: species or system E. coli. As to conditions: up to 150 µM Apt.
The subject of the next experiment is RelA. Set-up: method as in ref 36 (Table S1 ref 16). As to conditions: ref 36 (Table S1 ref 16); cited from earlier work.
In the next experiment the target is NadR (Escherichia coli, UniProt P27278). As to the kind of experiment: In vitro cleavage assay (TLC), NadR. In kind it is biochemical, E. coli. As to conditions: 10-20 µM NadR, buffer B with 100 mM NaCl, 10 min. As for the experimental part:
The purified His6-MutT and His6-NudG proteins were tested for their relative levels of cleavage of ppGpp compared to those seen with their native substrates. For this, a 1 μM concentration of each protein and a 10 nM concentration of [α-^32P]ppGpp were used together with 100 μM concentrations of cold competitors [ppGpp, GTP, ATP, 8-oxo-(d)GTP, 2-hydroxyl-(d)ATP] or 50 mM EDTA in buffer B. The samples were incubated at 30°C for 10 min and for 1 h before the reactions were stopped by adding 50 mM EDTA. The cleavage products were resolved by TLC as described above. The purified His6-NadR and His6-TrmE proteins were tested for their cleavage of both GTP and ppGpp. […]
A 20 μM concentration of each of purified proteins MutT, NudG, NadR, TrmE, and MBP (as a negative control) was incubated with 100 μM ppGpp in buffer B (containing 40 mM Tris [pH 7.5], 100 mM NaCl, and 10 mM MgCl2) for 20 min at room temperature. Samples were snap-frozen on dry ice and analyzed with UPLC-MS afterward. […] The detection conditions were as follows: photodiode array detector (PDA), […] (evaluated at 260 nm); MS, ionization; electrospray ionization (ESI+), scan, 200 to 800 m/z with lock mass correction. […]

The target in experiment [8] is T4, PurA. The experiment can be described thus: DRaCALA binding, purified PurA. Further details: species or system E. coli. As to conditions: PurA up to 150 µM.
Experimental: (§4) For Kd measurements by DRaCALA, 2-fold serial dilutions from the highest possible concentrations of each purified protein were prepared in binding buffer B, and approximately 2 nM concentrations of α-^32P-labeled ppGpp, pppGpp, GTP, and GDP were added. The mixtures were incubated for 5 min at RT before spotting of 2 µl of the reaction mixtures onto nitrocellulose membranes. The fractions of bound ligand and the apparent Kd values were calculated as previously described ([37]). For competition assays, purified proteins at the specified concentrations were incubated with 2 nM [α-^32P]ppGpp or [α-^32P]pppGpp in the presence of 100 μM competitor nucleotides in binding buffer B. The reaction mixtures were incubated for 5 min at RT, 2 µl was spotted onto nitrocellulose membranes, and the values corresponding to the bound fractions were determined. EDTA was added at excess concentrations as specified for each case.
The next experiment addresses PhoA (Escherichia coli, UniProt P00634). The experiment can be described thus: Cleavage of (p)ppGpp by PhoA. In kind it is biochemical, E. coli. The source says:
(§3) Supplement mbo001183765st1.docx, table 1: Table S1. List of proteins that bind or cleave (p)ppGpp. | column: Binding (Kd or otherwise stated in µM) or cleavage of (p)ppGpp in E. coli

The subject of experiment [9] is DnaG. Further details: method as in Table S1 (13). As to conditions: ref Table S1 (13); read-out: IC50, B. subtilis DnaG; cited from earlier work.
The next experiment has as its target T5, UshA (Escherichia coli, UniProt P07024).
T5 sequence (P07024 26-550): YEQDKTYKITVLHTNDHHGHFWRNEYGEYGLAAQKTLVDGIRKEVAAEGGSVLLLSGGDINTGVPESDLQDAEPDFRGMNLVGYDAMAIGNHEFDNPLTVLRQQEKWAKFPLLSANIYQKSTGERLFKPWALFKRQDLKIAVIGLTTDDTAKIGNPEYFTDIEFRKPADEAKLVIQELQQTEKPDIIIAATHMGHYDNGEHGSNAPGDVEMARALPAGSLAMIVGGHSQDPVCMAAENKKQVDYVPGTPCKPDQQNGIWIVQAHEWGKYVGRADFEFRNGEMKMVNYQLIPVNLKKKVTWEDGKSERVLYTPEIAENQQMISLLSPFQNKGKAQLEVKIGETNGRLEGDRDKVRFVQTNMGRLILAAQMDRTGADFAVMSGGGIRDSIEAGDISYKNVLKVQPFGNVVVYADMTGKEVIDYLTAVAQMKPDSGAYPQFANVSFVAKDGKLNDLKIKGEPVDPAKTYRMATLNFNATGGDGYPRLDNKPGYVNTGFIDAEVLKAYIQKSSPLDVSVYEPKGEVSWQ
The experiment can be described thus: Cleavage of (p)ppGpp by UshA. In kind it is biochemical, E. coli.
From the text: as §3

Entries after “also recorded” stand apart in the source; their conditions may differ. Read-outs that look alike come from different tables or passages of the source.

One may read the IC50 as the concentration at which inhibition is half-maximal. In general, Ki refers to the dissociation constant of the complex between target and ligand, obtained from inhibition or displacement.

T4 sequence (P0A7D4 whole entry): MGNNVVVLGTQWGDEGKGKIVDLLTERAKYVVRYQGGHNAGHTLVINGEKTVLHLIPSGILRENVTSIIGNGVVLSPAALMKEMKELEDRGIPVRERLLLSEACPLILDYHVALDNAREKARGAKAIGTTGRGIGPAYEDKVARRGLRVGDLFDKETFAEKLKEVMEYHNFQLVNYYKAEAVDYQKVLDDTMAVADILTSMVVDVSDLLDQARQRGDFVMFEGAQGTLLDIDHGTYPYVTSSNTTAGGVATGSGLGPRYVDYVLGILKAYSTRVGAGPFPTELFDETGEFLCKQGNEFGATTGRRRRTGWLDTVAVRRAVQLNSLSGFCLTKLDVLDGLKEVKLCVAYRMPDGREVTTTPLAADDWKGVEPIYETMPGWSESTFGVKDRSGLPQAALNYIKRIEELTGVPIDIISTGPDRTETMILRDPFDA
T1 sequence (P0ADR8 whole entry): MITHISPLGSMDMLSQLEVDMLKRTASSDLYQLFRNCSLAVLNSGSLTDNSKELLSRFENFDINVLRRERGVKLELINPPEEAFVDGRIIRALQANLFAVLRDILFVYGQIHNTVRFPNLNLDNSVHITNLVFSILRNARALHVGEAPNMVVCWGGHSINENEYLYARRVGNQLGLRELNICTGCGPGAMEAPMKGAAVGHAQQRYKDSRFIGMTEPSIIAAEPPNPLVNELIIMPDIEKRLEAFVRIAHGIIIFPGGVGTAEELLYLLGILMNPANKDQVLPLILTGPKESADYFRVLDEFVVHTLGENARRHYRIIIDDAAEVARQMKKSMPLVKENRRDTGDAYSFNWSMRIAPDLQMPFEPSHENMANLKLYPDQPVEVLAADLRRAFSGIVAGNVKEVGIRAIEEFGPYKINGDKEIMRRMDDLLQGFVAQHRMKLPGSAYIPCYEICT
Chain of NadR (P27278 whole entry): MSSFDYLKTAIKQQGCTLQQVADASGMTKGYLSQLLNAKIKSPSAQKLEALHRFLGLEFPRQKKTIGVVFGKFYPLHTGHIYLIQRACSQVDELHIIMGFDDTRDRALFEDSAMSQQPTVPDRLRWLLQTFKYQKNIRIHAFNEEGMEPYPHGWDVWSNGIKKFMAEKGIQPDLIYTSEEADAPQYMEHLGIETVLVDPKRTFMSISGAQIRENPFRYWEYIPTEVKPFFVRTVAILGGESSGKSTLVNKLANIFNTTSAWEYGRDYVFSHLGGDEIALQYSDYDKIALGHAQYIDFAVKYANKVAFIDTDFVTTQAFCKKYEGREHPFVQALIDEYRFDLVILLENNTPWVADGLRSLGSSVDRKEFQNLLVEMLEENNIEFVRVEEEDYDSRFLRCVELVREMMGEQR
T2 sequence (P69503 whole entry): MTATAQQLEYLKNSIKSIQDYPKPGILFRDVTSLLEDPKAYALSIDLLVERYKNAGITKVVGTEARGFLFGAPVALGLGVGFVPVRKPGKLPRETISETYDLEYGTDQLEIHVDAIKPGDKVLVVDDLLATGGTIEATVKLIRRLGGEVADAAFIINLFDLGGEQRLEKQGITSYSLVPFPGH
Chain of TrmE (P25522 whole entry): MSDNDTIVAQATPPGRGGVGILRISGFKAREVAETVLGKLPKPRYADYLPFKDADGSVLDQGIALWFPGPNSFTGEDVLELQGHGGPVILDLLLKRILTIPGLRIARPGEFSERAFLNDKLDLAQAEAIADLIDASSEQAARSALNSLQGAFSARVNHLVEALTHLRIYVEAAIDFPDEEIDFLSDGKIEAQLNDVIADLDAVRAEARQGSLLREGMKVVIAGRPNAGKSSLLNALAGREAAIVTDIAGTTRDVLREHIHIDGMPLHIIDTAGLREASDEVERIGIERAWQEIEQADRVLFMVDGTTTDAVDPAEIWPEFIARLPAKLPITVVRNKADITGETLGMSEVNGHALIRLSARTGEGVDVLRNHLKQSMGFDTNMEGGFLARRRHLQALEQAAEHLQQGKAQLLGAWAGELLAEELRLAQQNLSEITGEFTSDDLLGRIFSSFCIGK
Chain of Gpt (P0A9M5 whole entry): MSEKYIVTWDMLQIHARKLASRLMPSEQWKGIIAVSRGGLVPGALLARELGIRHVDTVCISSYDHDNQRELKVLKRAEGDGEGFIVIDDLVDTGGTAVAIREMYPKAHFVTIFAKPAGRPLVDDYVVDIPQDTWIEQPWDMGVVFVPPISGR
Chain of MutT (P08337 whole entry): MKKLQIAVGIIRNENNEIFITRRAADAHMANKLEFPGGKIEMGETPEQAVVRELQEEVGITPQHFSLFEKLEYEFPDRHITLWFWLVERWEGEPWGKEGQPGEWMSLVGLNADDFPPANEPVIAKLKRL
Chain of Hpt (P0A9M2 whole entry): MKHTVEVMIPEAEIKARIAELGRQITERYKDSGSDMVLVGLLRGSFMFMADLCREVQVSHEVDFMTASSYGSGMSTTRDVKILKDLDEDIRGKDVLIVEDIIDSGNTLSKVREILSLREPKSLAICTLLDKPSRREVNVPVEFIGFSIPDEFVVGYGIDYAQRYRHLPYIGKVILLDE
Chain of PhoA (P00634 22-471): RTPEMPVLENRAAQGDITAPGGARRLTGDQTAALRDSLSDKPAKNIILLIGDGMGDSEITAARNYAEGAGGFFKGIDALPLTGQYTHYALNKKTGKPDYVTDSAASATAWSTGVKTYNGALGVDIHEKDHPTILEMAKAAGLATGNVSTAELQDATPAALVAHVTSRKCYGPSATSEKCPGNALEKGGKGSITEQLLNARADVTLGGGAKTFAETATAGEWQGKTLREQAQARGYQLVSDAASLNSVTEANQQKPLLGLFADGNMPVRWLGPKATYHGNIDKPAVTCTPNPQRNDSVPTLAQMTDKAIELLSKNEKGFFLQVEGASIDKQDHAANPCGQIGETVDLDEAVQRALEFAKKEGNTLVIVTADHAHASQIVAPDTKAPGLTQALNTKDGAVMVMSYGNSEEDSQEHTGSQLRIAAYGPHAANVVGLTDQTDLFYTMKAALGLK
T3 sequence (P77788 whole entry): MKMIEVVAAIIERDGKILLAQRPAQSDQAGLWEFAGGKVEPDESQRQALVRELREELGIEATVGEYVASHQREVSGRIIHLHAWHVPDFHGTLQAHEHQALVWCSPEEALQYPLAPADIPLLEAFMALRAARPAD
Experimental for Gpt: The mixtures were incubated for 5 min at RT before spotting of 2 µl of the reaction mixtures onto nitrocellulose membranes. […] For competition assays, purified proteins at the specified concentrations were incubated with 2 nM [α-^32P]ppGpp or [α-^32P]pppGpp in the presence of 100 μM competitor nucleotides in binding buffer B. The reaction mixtures were incubated for 5 min at RT, 2 µl was spotted onto nitrocellulose membranes, and the values corresponding to the bound fractions were determined.
Experimental for Hpt: as §4

Take (p)ppGpp: the “degradation by YgdH” value on YgdH [1] was “not degraded”. In addition, the “cleavage by TrmE” value on TrmE is reported as “some degradation; also recorded: Cleavage of (p)ppGpp into ppGp/pGpp”. Besides, the IC50 is 1500 µM on Apt [2], 15 µM in the experiment on RNAP /DksA, 200 µM with DnaG [3] and 500 µM in the experiment on DnaG [9]. Also, the inhibition constant Ki at YybT /GdpP (ref Table S1 (21)) was 36 µM; on YybT /GdpP (ref Table S1 (22)), 130 µM; at GuaB it was 30 to 50 µM; at PurA [5] (ref Table S1 (5)) it was 140 µM; at PurA [5] (ref Table S1 (6)), 50 µM. Further, the “competition for bound [α-32P]ppGpp on Hpt” value on Hpt is “partially outcompete”. For the same substance, the “competition for bound [α-32P]ppGpp on Gpt” value at Gpt was “partially outcompete”. The “cleavage by NudG” value at NudG is “Cleavage of (p)ppGpp into pGp”. The “competition for (p)ppGpp binding to YgdH” value on YgdH [4] is “could outcompete”. Further, the “cleavage by MutT” value on MutT is listed as “Cleavage of (p)ppGpp into pGp”. Besides, at YgdH [6], the “binding to purified YgdH” value is listed as “not able to significantly bind”. In addition, the “binding to Apt” value on Apt [7] is “no significant binding”. Besides, the “effect on RelA activity” value with RelA was “Synthesis of and stimulated by (p)ppGpp; (16)”. For the same substance, the “cleavage by NadR” value on NadR was “some degradation; also recorded: Cleavage of (p)ppGpp into ppGp/pGpp”. Further, the “binding to PurA” value on PurA [8] is “no specific binding; also recorded: does not significantly bind”. Also, the “cleavage by PhoA” value at PhoA was “Non-specific cleavage of (p)ppGpp into (p)pi”. Besides, the “cleavage by UshA” value on UshA is given as “Non-specific cleavage of (p)ppGpp into (p)pi”.

The values above are taken from article PMC5845004, “Novel (p)ppGpp Binding and Metabolizing Proteins of Escherichia coli” (mBio, 2018).
